≈ marks a conversion by molar mass, not a printed value.

The values that follow come from US20040023983A1, “Methods of use of fluoroquinolone compounds against pathogenic helicobacter bacteria” (priority 2003, published 2004).

For one experiment, the system named is H. pylori. Nature of the experiment: NCCLS agar dilution MIC, 21 H. pylori strains. The format is cell-based, Helicobacter pylori. Conditions: 21 isolates of H. pylori, read at 72 hours; for MIC50 / MIC90: Helicobacter pylori. An excerpt: (§1) The aim of the present invention is to evaluate the susceptibility of H. pylori to the new fluoroquinolone gemifloxacin (SB-265805). Twenty-one (21) H. pylori strains were obtained, including 16 clinical isolates CCUG 39297, CCUG 30988 (Lelwala-Guruge, J., Ljungh, A., & Wadstrom, T. 1992. APMIS 100, 908-13), CCUG 17875 (Lelwala-Guruge, J., Ljungh, A., & Wadstrom, T. 1992. APMIS 100, 908-13; Ilver, D., Arnqvist, A., Ogren, J., Frick, I. M., Kersulyte, D., Incecik, E. T. et al. 1998. Science 279, 373-7), CCUG 38771, CCUG 15818, CCUG 17874 (Lelwala-Guruge, J., Ljungh, A., & Wadstrom, T. 1992. APMIS 100, 908-13; O'Toole, P. W., Logan, S. M., Kostrzynska, M., Wadström, T., & Trust, T. J. 1991. Journal of Bacteriology 173, 505-513), CCUG 19087, CCUG 30987 (Lelwala-Guruge, J., Ljungh, A., & Wadstrom, T. 1992. APMIS 100, 908-13), CCUG 38772, CCUG 18943, CCUG 18295, CCUG 36718, CCUG 36719, CCUG 35899, CCUG 36720, CCUG 39924; and laboratory strains Not18, Not34, ATCC 43504, SS1, and ATCC 700392/26695. These strains include gastric biopsy isolates from the USA, Sweden, France, Belgium, UK, South Africa, and Australia Two of the clinical isolates are reported to have the cagA^+ genotype (strains CCUG 17874 and CCUG 17875) and three to be cagA^− (strains CCUG 36720, CCUG 36719, and CCUG 30988), but the cag genotype of the rest is unknown. […] The activities of amoxycillin, tetracycline and metronidazole against H. pylori ATCC 43504 were also tested as controls. The agar plates were inoculated using a Steers replicator and read at 72 hours.

For the next experiment, the system named is H. pylori ATCC 43504. In words: NCCLS agar dilution MIC, control antibiotics against quality control strain. The format is cell-based. Conditions: Helicobacter pylori, ATCC43504, read at 72 hours.
Text: as §1

Consider `CO/N=C1\CN(c2nc3c(cc2F)c(=O)c(C(=O)O)cn3C2CC2)CC1CN` (racemic) [Gemifloxacin, (R,S)-7-(3-aminomethyl-4-methoxyiminopyrrolidin-1-yl)-1-cyclopropyl-6-fluoro-4-oxo-1,4-dihydro-1,8-naphthyridine-3-carboxylic acid], for which, in the experiment on H. pylori, the “MIC Range” value lay in the range of 0.03 to 1.0 µg/mL, the MIC50 stood at 0.06 µg/mL (≈ 0.154 µM) and the MIC90 came to 0.13 µg/mL (≈ 0.334 µM).
As for `COc1c(N2CCNC(C)C2)c(F)cc2c(=O)c(C(=O)O)cn(C3CC3)c12` (stereo not drawn) [Gatifloxacin], in the experiment on H. pylori, the “MIC Range” value fell in the range of 0.03 to 0.5 µg/mL, the MIC50 came out at 0.13 µg/mL (≈ 0.346 µM) and the MIC90 was determined as 0.13 µg/mL (≈ 0.346 µM).
Regarding `C[C@H]1COc2c(N3CCN(C)CC3)c(F)cc3c(=O)c(C(=O)O)cn1c23` [Levofloxacin], in the experiment with H. pylori, the “MIC Range” value was 0.13 to 2.0 µg/mL, the MIC50 was 0.25 µg/mL (≈ 0.692 µM) and the MIC90 came to 0.5 µg/mL (≈ 1.38 µM).
For `COc1c(N2C[C@@H]3CCCN[C@@H]3C2)c(F)cc2c(=O)c(C(=O)O)cn(C3CC3)c12` [Moxifloxacin] the same measures were 0.13 to 2.0 µg/mL, 0.25 µg/mL (≈ 0.623 µM) and 0.5 µg/mL (≈ 1.25 µM).
For `CC1(C)S[C@@H]2[C@H](NC(=O)[C@H](N)c3ccc(O)cc3)C(=O)N2[C@H]1C(=O)O` [amoxycillin], in the experiment on H. pylori ATCC 43504, the MIC was 0.06 µg/mL (≈ 0.164 µM).
Compound `Cc1ncc([N+](=O)[O-])n1CCO` [metronidazole] gave a minimal inhibitory concentration (MIC) in the experiment with H. pylori ATCC 43504 of 256 µg/mL (≈ 1500 µM).
In the experiment with H. pylori ATCC 43504, `CN(C)[C@@H]1C(O)=C(C(N)=O)C(=O)[C@@]2(O)C(O)=C3C(=O)c4c(O)cccc4[C@@](C)(O)[C@H]3C[C@@H]12` [tetracycline] came in with a minimum inhibitory concentration (MIC) of 1 µg/mL (≈ 2.25 µM).
